SMILES strings stand for the structures.

One experiment deals with [35S]-TBPS binding, rat brain cortical membranes. Description: Steroid inhibition of [35S]-TBPS binding. To be noted: Table 4, 3 nM [35S]-TBPS, in the presence of 5 mM GABA, read-out: TBPS IC50. An outline of the steps: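 Washed P2 cortical membranes from Sprague-Dawley rats, in 200 mM NaCl/50 mM Na-K phosphate pH 7.4, incubated 90 min at room temp with 3 nM [35S]-TBPS, […] GABA and test drug (0.5% DMSO final). Nonspecific binding defined with […] unlabeled TBPS; filtration and scintillation counting. IC50 and Imax from non-linear curve fits, means±SEM of experiments.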
As to `CC[C@]12CC[C@H]3[C@@H](CC[C@@H]4C[C@](C)(O)CC[C@@H]43)[C@@H]1CCC[C@@H]2C(C)=O` [Example 27, 1-((1S,4aS,4bR,6aR,8R,10aS,10bR,12aS)-12a-ethyl-8-hydroxy-8-methyloctadecahydrochrysen-1-yl)ethanone], the concentration for half-maximal inhibition (IC50) is under 100 nM.

For the molecule `COC[C@]1(O)CC[C@H]2CC[C@@H]3[C@H](CC[C@]4(C)[C@@H](C(=O)Cn5cc(C#N)cn5)CCC[C@@H]34)[C@@]2(C)CC1` [Example 55, 1-(2-((1S,4aS,4bR,6aR,9S,11aS,11bS,13aS)-9-hydroxy-9-(methoxymethyl)-11a,13a-dimethyloctadecahydro-1H-cyclohepta[a]phenanthren-1-yl)-2-oxoethyl)-1H-pyrazole-4-carbonitrile], the 50% inhibitory concentration (IC50) was 100 to 1000 nM.

Regarding `Cc1nnn(CC(=O)[C@H]2CCCC[C@H]3[C@@H]4CC[C@@H]5C[C@](C)(O)CCC[C@]5(C)[C@H]4CC[C@]23C)n1` [Example 62, 1-((1S,5aS,5bR,7aR,9R,12aS,12bS,14aS)-9-hydroxy-9,12a,14a-trimethylicosahydrodicyclohepta[a,f]naphthalen-1-yl)-2-(5-methyl-2H-tetrazol-2-yl)ethanone], the 50% inhibitory concentration (IC50) was under 100 nM.

With `CC[C@]12CCCC(C)(O)C[C@H]1CC[C@H]1[C@@H]3CC[C@H](C(=O)Cn4cc(C#N)cn4)[C@@]3(C)CC[C@@H]12` (stereo in doubt) [Example 20, 1-(2-((1S,3aS,3bS,5aR,7S,10aS,10bS,12aS)-10a-ethyl-7-hydroxy-7,12a-dimethyloctadecahydrocyclohepta[a]cyclopenta[f]naphthalen-1-yl)-2-oxoethyl)-1H-pyrazole-4-carbonitrile], the 50% inhibitory concentration (IC50) was under 100 nM.

Take `C[C@]1(O)CC[C@H]2CC[C@@H]3[C@H](CC[C@]4(C)[C@@H](C(=O)Cn5cc(C#N)cn5)CCC[C@@H]34)[C@H]2CC1` [Example 4, 1-(2-((1S,4aS,4bR,6aR,9S,11aS,11bR,13aS)-9-hydroxy-9,13a-dimethyloctadecahydro-1H-cyclohepta[a]phenanthren-1-yl)-2-oxoethyl)-1H-pyrazole-4-carbonitrile]: the concentration for half-maximal inhibition (IC50) lay in the range of 100 to 1000 nM.

For `CC[C@]12CC[C@@](C)(O)C[C@H]1CC[C@H]1[C@@H]3CCCC[C@@H](C(=O)Cn4cc(C#N)cn4)[C@@]3(C)CC[C@@H]12` [Example 21], the half-inhibitory concentration (IC50) lay within 100 to 1000 nM.

On to `CC[C@]12CC[C@@](C)(O)CC[C@H]1CC[C@H]1[C@@H]3CC[C@H](C(C)=O)[C@@]3(C)CC[C@@H]12` [Example 25, 1-((1S,3aS,3bS,5aR,8S,10aS,10bS,12aS)-10a-ethyl-8-hydroxy-8,12a-dimethyloctadecahydrocyclohepta[a]cyclopenta[f]naphthalen-1-yl)ethanone], for which the IC50 fell in the range of 100 to 1000 nM.

As for `C[C@]1(O)CC[C@H]2CC[C@@H]3[C@H](CC[C@]4(C)[C@@H](C(=O)CCn5cc(C#N)cn5)CCC[C@@H]34)[C@H]2CC1` [Example 51, 1-(3-((1S,4aS,4bR,6aR,9S,11aS,11bR,13aS)-9-hydroxy-9,13a-dimethyloctadecahydro-1H-cyclohepta[a]phenanthren-1-yl)-3-oxopropyl)-1H-pyrazole-4-carbonitrile], the IC50 fell in the range of 100 to 1000 nM.

On to `Cc1nnn(CC(=O)[C@H]2CCC[C@H]3[C@@H]4CC[C@@H]5C[C@](C)(O)CCC[C@@H]5[C@H]4CC[C@]23C)n1` [Example 11, 1-((1S,4aS,4bR,6aR,8R,11aS,11bR,13aS)-8-hydroxy-8,13a-dimethyloctadecahydro-1H-cyclohepta[a]phenanthren-1-yl)-2-(5-methyl-2H-tetrazol-2-yl)ethan-1-one], for which the half-inhibitory concentration (IC50) is under 100 nM.

As to `CC(=O)[C@H]1CCC[C@H]2[C@@H]3CC[C@@H]4C[C@](C)(O)CCC[C@]4(C)[C@H]3CC[C@]12C` [Example 15, 1-((1S,4aS,4bR,6aR,8R,11aS,11bS,13aS)-8-hydroxy-8,11a,13a-trimethyloctadecahydro-1H-cyclohepta[a]phenanthren-1-yl)ethan-1-one], the IC50 is under 100 nM.

Take `C[C@]1(O)CC[C@@H]2CC[C@@H]3[C@H](CC[C@]4(C)[C@H](C(=O)Cn5cc(C#N)cn5)CCC[C@@H]34)[C@@]2(C)CC1` [Example 45, 1-(2-((1R,4aS,4bR,6aS,9S,11aS,11bS,13aS)-9-hydroxy-9,11a,13a-trimethyloctadecahydro-1H-cyclohepta[a]phenanthren-1-yl)-2-oxoethyl)-1H-pyrazole-4-carbonitrile]: the IC50 is over 1000 nM.

For the molecule `CC[C@]12CC[C@H]3[C@@H](CC[C@@H]4CC[C@@](O)(COC)CC[C@@H]43)[C@@H]1CC[C@@H]2C(C)=O` [Example 32, 1-((1S,3aS,3bR,5aR,8S,10aS,10bR,12aS)-12a-ethyl-8-hydroxy-8-(methoxymethyl)octadecahydrocyclohepta[a]cyclopenta[f]naphthalen-1-yl)ethanone], the IC50 lay in the range of 100 to 1000 nM.

Regarding `CC[C@]12CC[C@H]3[C@@H](CC[C@@H]4CC[C@@](O)(COC)CC[C@@H]43)[C@@H]1CC[C@@H]2C(=O)Cn1cc(C#N)cn1` [Example 31, 1-(2-((1S,3aS,3bR,5aR,8S,10aS,10bR,12aS)-12a-ethyl-8-hydroxy-8-(methoxymethyl)octadecahydrocyclohepta[a]cyclopenta[f]naphthalen-1-yl)-2-oxoethyl)-1H-pyrazole-4-carbonitrile], the half-maximal inhibitory concentration (IC50) lay in the range of 100 to 1000 nM.

`Cc1nnn(CC(=O)[C@@H]2CCCC[C@H]3[C@@H]4CC[C@@H]5C[C@](C)(O)CCC[C@]5(C)[C@H]4CC[C@]23C)n1` [Example 64]: the IC50 lay within 100 to 1000 nM.

As for `C[C@]1(O)CC[C@H]2CC[C@@H]3[C@H](CC[C@]4(C)[C@@H](C(=O)Cn5cc(C#N)cn5)CCC[C@@H]34)[C@@]2(C)CC1` [Example 52, 1-(2-((1S,4aS,4bR,6aR,9S,11aS,11bS,13aS)-9-hydroxy-9,11a,13a-trimethyloctadecahydro-1H-cyclohepta[a]phenanthren-1-yl)-2-oxoethyl)-1H-pyrazole-4-carbonitrile], the half-maximal inhibitory concentration (IC50) lay in the range of 100 to 1000 nM.

In the case of `CC[C@]12CC[C@@](C)(O)C[C@H]1CC[C@H]1[C@@H]3CCC[C@H](C(=O)Cn4cc(C#N)cn4)[C@@]3(C)CC[C@@H]12` [Example 19, 1-(2-((1S,4aS,4bS,6aR,8R,10aS,10bS,12aS)-10a-ethyl-8-hydroxy-8,12a-dimethyloctadecahydrochrysen-1-yl)-2-oxoethyl)-1H-pyrazole-4-carbonitrile], the half-inhibitory concentration (IC50) is under 100 nM.

On to `CC[C@]1(O)CC[C@H]2CC[C@@H]3[C@H](CC[C@]4(C)[C@@H](C(C)=O)CCC[C@@H]34)[C@H]2CC1` [Example 49, 1-((1S,4aS,4bR,6aR,9S,11aS,11bR,13aS)-9-ethyl-9-hydroxy-13a-methyloctadecahydro-1H-cyclohepta[a]phenanthren-1-yl)ethanone], for which the IC50 was over 1000 nM.

Still in this experiment, the particulars now being: Table 5, 3 nM [35S]-TBPS, in the presence of 5 mM GABA, read-out: TBPS IC50.
With `CC[C@]12CC[C@@](C)(O)C[C@H]1CC[C@H]1[C@@H]3CC[C@H](C(=O)Cn4nnnc4C)[C@H]3CC[C@@H]12` [Example 82, 1-((3R,5R,8S,9S,10S,13S,14S,17S)-10-ethyl-3-hydroxy-3-methylhexadecahydro-1H-cyclopenta[a]phenanthren-17-yl)-2-(5-methyl-1H-tetrazol-1-yl)ethanone], the concentration for half-maximal inhibition (IC50) is under 100 nM.

As to `Cc1nnn(CC(=O)[C@H]2CCC[C@H]3[C@@H]4CC[C@H]5C[C@](C)(O)CC[C@@H]5[C@H]4CC[C@@H]32)n1` [Example 80, 1-((1S,4aS,4bR,6aS,8R,10aS,10bR,12aS)-8-hydroxy-8-methyloctadecahydrochrysen-1-yl)-2-(5-methyl-2H-tetrazol-2-yl)ethanone], the concentration for half-maximal inhibition (IC50) was under 100 nM.

As to `C[C@@]1(O)CC[C@H]2[C@H](CC[C@H]3[C@@H]4CC[C@H](C(=O)Cn5cc(C#N)cn5)[C@@H]4CC[C@@H]32)C1` [Example 84, 1-(2-((3R,5R,8R,9R,10S,13R,14S,17S)-3-hydroxy-3-methylhexadecahydro-1H-cyclopenta[a]phenanthren-17-yl)-2-oxoethyl)-1H-pyrazole-4-carbonitrile], the concentration for half-maximal inhibition (IC50) was 100 to 1000 nM.

Regarding `CC(=O)[C@H]1CC[C@H]2[C@@H]3CC[C@@H]4C[C@](C)(O)CC[C@@H]4[C@H]3CC[C@@H]21` [Example 66], the 50% inhibitory concentration (IC50) was under 100 nM.

With `CC(=O)[C@@H]1CC[C@H]2[C@@H]3CC[C@@H]4C[C@](C)(O)CC[C@@H]4[C@H]3CC[C@@H]21` [Example 67, 1-((3R,5R,8R,9R,10S,13S,14S,17R)-3-hydroxy-3-methylhexadecahydro-1H-cyclopenta[a]phenanthren-17-yl)ethan-1-one], the concentration for half-maximal inhibition (IC50) is over 1000 nM.

Consider `CC(=O)[C@H]1CC[C@H]2[C@@H]3CC[C@H]4C[C@](C)(O)CC[C@@H]4[C@H]3CC[C@@H]21` [Example 72, 1-((3R,5S,8R,9R,10S,13S,14S,17S)-3-hydroxy-3-methylhexadecahydro-1H-cyclopenta[a]phenanthren-17-yl)ethanone], for which the half-inhibitory concentration (IC50) is over 1000 nM.

Still in this experiment, the particulars now being: Table 6, 3 nM [35S]-TBPS, in the presence of 5 mM GABA, read-out: IC50.
Consider `C[C@@]1(O)CC[C@@]2(C3CC3)[C@H](CC[C@H]3[C@@H]4CCC[C@H](C(=O)Cn5cc(C#N)cn5)[C@@]4(C)CC[C@@H]32)C1` [Example 87, 1-(2-((1S,4aS,4bS,6aR,8R,10aR,10bS,12aS)-10a-cyclopropyl-8-hydroxy-8,12a-dimethyloctadecahydrochrysen-1-yl)-2-oxoethyl)-1H-pyrazole-4-carbonitrile], for which the half-maximal inhibitory concentration (IC50) was under 100 nM.

In general, IC50 refers to the point on the concentration scale where inhibition reaches its midpoint.

The values above are taken from patent US20260098053A1, “COMPOSITIONS AND METHODS FOR TREATING CNS DISORDERS” (SAGE THERAPEUTICS, INC., priority 2019, published 2026).
